Where two headings read alike, the source gives them in different places.
Tests used:
MCL-1 = MCL-1 (Homo sapiens, UniProt Q07820); experiment: Protein-protein interaction assay MCL-1/Noxa BH3 peptide (MCL-1 assay), TR-FRET; assay type: binding; conditions: MBP-MCL-1 / Noxa BH3-derived peptide, median
Procedure, shortened: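 Steady-state competition, MCL-1/Noxa BH3, TR-FRET readout; 1 nM MBP-MCL-1, 11-point dose series 0.1 nM–20 μM; overnight 4 °C equilibration; 4-parameter IC50.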

SUDHL5 [1] = experiment: Anti-proliferative effect (CellTiter-Glo, 72 h), SUDHL5; assay type: cell-based; conditions: Homo sapiens, SU-DHL-5, 72 h, SUDHL5 cells, antiproliferation, 72 h incubation, median, read-out: Antiproli SUDHL5 [M] (median)
Procedure, shortened: (§1)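 Endpoint: CellTiter-Glo luminescence, 10 min after reagent addition. Treatment ran 72 h at 37 °C, humidified. Growth was referenced to a separately plated day 0 plate.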

A2780 = experiment: Anti-proliferative effect (CellTiter-Glo, 72 h), A2780; assay type: cell-based; conditions: A2780 cells, median, read-out: IC50 antiproliferation assay A2780 [M] (median)
Procedure, shortened: as §1

SUDHL5 [2] = experiment: Induction of caspase-3/7 activity (Caspase-Glo 3/7), SUDHL5; assay type: cell-based; conditions: Homo sapiens, SU-DHL-5, 3 h, caspase-3/7 induction, SUDHL5 cells, 3 h treatment; median
Procedure, shortened: (§2)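 A 3 h, 37 °C compound incubation precedes the Caspase-Glo 3/7 read. After subtracting medium-only signal, EC50s are fitted against the reference compound's maximal caspase induction.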

SUDHL10 [3] = experiment: Induction of cytotoxicity (CellTiter-Glo, 5 h), SUDHL10
OPM2 = experiment: Anti-proliferative effect (CellTiter-Glo, 72 h), OPM2; assay type: cell-based; conditions: OPM2 cells, median, read-out: IC50 antiproliferation assay OPM2 [M] (median)
Procedure, shortened: as §1

SUDHL10 [4] = experiment: Induction of caspase-3/7 activity (Caspase-Glo 3/7), SUDHL10; assay type: cell-based; conditions: Homo sapiens, SU-DHL10, 3 h, caspase-3/7 induction, SUDHL10 cells, 3 h treatment; median
Procedure, shortened: as §2

SUDHL10 [5] = experiment: Anti-proliferative effect (CellTiter-Glo, 72 h), SUDHL10; assay type: cell-based; conditions: Homo sapiens, SU-DHL10, 72 h, SUDHL10 cells, antiproliferation, 72 h incubation, median, read-out: Antiproli SUDHL10 [M] (median)
Procedure, shortened: as §1

SUDHL5 [6] = experiment: Induction of cytotoxicity (CellTiter-Glo, 5 h), SUDHL5; conditions: Homo sapiens, SU-DHL-5, 5 h, read-out: Cytotox SUDHL5 [M] (median), SUDHL5 cells, cytotoxicity induction, CellTiter-Glo, 5 h incubation, median
Protocol: Therefore, cytotoxicity assays were run in parallel in SUDHL5 and SUDHL10 cells.
The different cell lines were plated in culture medium (RPMI 1640 [GIBCO #22400-089]supplemented with 10% Fetal Bovine Serum) at a density of 3.300 cells in 30 μl/well in a sterile, solid black, flat bottom, polystyrene, TC-treated 384-well microplate (Corning #3571) using Multidrop Combi Reagent Dispenser. As a control, medium without cells was also added to the plate. Cells were incubated in a humidified incubator at 37° C. overnight. On the next day, the cells were treated with compounds (stock solution, 10 mM in DMSO) using the HP D300 Digital Dispenser in a concentration range of 3.3×10e-5 M (33 μM) to 5×10e-9 M (5 nM) in a single-dot curve with at least 16 dilutions and a DMSO concentration of 0.33%. Rim wells were excluded. The cells were incubated for 5 h hours in a humidified incubator at 37° C. After this incubation, 30 μl of CellTiter-Glo@ Luminescent Cell Viability reagent (Promega, G7573) was added to each well using the Multidrop Combi Reagent Dispenser, followed by 15 min incubation on a shaker at room temperature. Finally, luminescence was read at 0.1 ms, with a gain of 3000 using the PHERAstar FS microplate reader (BMG Labtech).
The Bella DRC Master Sheet was used to calculate IC50s, with fixed CI=0 and C0=1.

[7] = Homo sapiens, SU-DHL10, 5 h, read-out: Cytotox SUDHL10 [M] (median), SUDHL10 cells, cytotoxicity induction, CellTiter-Glo, 5 h incubation, median

Sequence of MCL-1 (Q07820 whole entry): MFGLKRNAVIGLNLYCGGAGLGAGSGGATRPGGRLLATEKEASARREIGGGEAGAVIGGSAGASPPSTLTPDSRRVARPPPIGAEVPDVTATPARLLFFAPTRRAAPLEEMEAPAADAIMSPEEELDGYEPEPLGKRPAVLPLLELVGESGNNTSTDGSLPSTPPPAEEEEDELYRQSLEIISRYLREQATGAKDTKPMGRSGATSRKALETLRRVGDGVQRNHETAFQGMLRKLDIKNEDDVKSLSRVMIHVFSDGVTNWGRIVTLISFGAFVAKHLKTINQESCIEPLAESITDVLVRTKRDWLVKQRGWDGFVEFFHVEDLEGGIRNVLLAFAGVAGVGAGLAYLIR

| SMILES | IC50 (MCL-1) [µM] | IC50 (SUDHL5 [1]) [M] | IC50 (A2780; Homo sapiens, A2780, 72 h) [M] | EC50 (SUDHL5 [2]) [µM] | EC50 (SUDHL10 [4]) [µM] | IC50 (SUDHL10 [5]) [M] | IC50 (A2780) [M] | IC50 (SUDHL10 [3]; [7]) [M] | IC50 (OPM2; Homo sapiens, OPM-2, 72 h) [M] | IC50 (SUDHL5 [6]) [M] | IC50 (SUDHL10 [3]; read-out: Cytotox SUDHL10 [M] (median), SUDHL10 cells, cytotoxicity induction, CellTiter-Glo, 5 h incubation, median) | IC50 (OPM2) [M] |
| --- | --- | --- | --- | --- | --- | --- | --- | --- | --- | --- | --- | --- |
| CCN(CC)S(=O)(=O)N1CCN(c2ccc(OCc3nn(C)c4c3-c3cccc5c(CCCOc6cccc7ccccc67)c(C(=O)O)n(c35)CCCCOC4)cc2)CC1 (racemic) [Example 1-3, (rac)-3-({4-[4-(diethylsulfamoyl)piperazin-1-yl]phenoxy}methyl)-1-methyl-7-[3-(naphthalen-1-yloxy)propyl]-1,10,11,12,13,15-hexahydropyrazolo[4′,3′:9,10][1,6]oxazacycloundecino[8,7,6-hi]indole-8-carboxylic Acid] | 0.00378 | 1.27e-06 | 4.86e-06 | 2 | 2.36 | 1.9e-06 |  | 2.64e-06 | 2.11e-06 | 2.68e-06 |  |  |
| CN1CCN(c2ccc(OCc3nn(C)c4c3-c3cccc5c(CCCOc6cccc7ccccc67)c(C(=O)O)n(c35)CCCCOC4)cc2)CC1 (racemic) [Example 1-7, (rac)-1-methyl-3-{[4-(4-methylpiperazin-1-yl)phenoxy]methyl}-7-[3-(naphthalen-1-yloxy)propyl]-1,10,11,12,13,15-hexahydropyrazolo[4′,3′:9,10][1,6]oxazacycloundecino[8,7,6-hi]indole-8-carboxylic Acid] | 0.0158 | 1.63e-06 | > 3.3e-05 | > 33 | > 33 | > 3.3e-05 |  | 8.17e-06 | > 3.3e-05 | > 3.3e-05 |  |  |
| CN(C)S(=O)(=O)N1CCN(c2ccc(OCc3nn(C)c4c3-c3cccc5c(CCCOc6cccc7ccccc67)c(C(=O)O)n(c35)CC=CCOC4)cc2)CC1 (racemic) [Example 1-17, (rac)-(E/Z)-3-({4-([4-(dimethylsulfamoyl)piperazin-1-yl]phenoxy}methyl)-1-methyl-7-[3-(naphthalen-1-yloxy)propyl]-1,10,13,15-tetrahydropyrazolo[4′,3′:9,10][1,6]oxazacycloundecino[8,7,6-hi]indole-8-carboxylic Acid] | 0.0127 | 2.99e-06 | 8.94e-06 | 3.73 | 4.39 | 4.25e-06 |  | 6.88e-06 | 4.37e-06 | 4.36e-06 |  |  |
| Cn1nc(COc2ccc(N3CCN(C(=O)C4CC4)CC3)cc2)c2c1COCCCCn1c(C(=O)O)c(CCCOc3cccc4ccccc34)c3cccc-2c31 (racemic) [Example 1-21, (rac)-3-({4-[4-(cyclopropylcarbonyl)piperazin-1-yl]phenoxy}methyl)-1-methyl-7-[3-(naphthalen-1-yloxy)propyl]-10,11,12,13,15-hexahydropyrazolo[4′,3′:9,10][1,6]oxazacycloundecino[8,7,6-hi]indole-8-carboxylic Acid] | 0.00106 | 2.41e-06 | 1.29e-05 | 2.34 | 2.82 | 2.49e-06 |  | 3.26e-06 | 3.61e-06 | 2.31e-06 |  |  |
| CC(=O)N1CCN(c2ccc(OCc3nn(C)c4c3-c3cccc5c(CCCOc6cccc7ccccc67)c(C(=O)O)n(c35)CCCCOC4)cc2)CC1 (racemic) [Example 1-24, (rac)-3-{[4-(4-acetylpiperazin-1-yl)phenoxy]methyl}-1-methyl-7-[3-(naphthalen-1-yloxy)propyl]-1,10,11,12,13,15-hexahydropyrazolo[4′,3′:9,10][1,6]oxazacycloundecino[8,7,6-hi]indole-8-carboxylic Acid] | 0.00231 | 4.7e-06 | > 3.3e-05 | 4.28 | 6.61 | 6.52e-06 |  | 4.33e-06 | 2.97e-05 | 2.23e-06 |  |  |
| COCC(=O)N1CCN(c2ccc(OCc3nn(C)c4c3-c3cccc5c(CCCOc6cccc7ccccc67)c(C(=O)O)n(c35)CCCCOC4)cc2)CC1 (racemic) [Example 1-27, (rac)-3-({4-[4-(methoxyacetyl)piperazin-1-yl]phenoxy}methyl)-1-methyl-7-[3-(naphthalen-1-yloxy)propyl]-1,10,11,12,13,15-hexahydropyrazolo[4′,3′:9,10][1,6]oxazacycloundecino[8,7,6-hi]indole-8-carboxylic Acid] | 0.00208 | 2.95e-06 | 2.23e-05 | 4.42 | 7.5 | 6.3e-06 |  | 8.44e-06 | 8.75e-06 | 3.53e-06 |  |  |
| Cc1nn(C)c2c1-c1cccc3c(CCCOc4cccc5ccccc45)c(C(=O)O)n(c13)CCCCOC2 (racemic) [Example 1-33, (rac)-1,3-dimethyl-7-[3-(naphthalen-1-yloxy)propyl]-1,10,11,12,13,15-hexahydropyrazolo[4′,3′:9,10][1,6]oxazacycloundecino[8,7,6-hi]indole-8-carboxylic Acid] | 0.009 | 9.78e-06 | > 3.3e-05 | 5.78 | 13.7 | 1.83e-05 |  | 2.19e-05 | 2.23e-05 | 7.47e-06 |  |  |

Continued, in another order:

| IC50 (MCL-1) [µM] | IC50 (SUDHL5 [1]) [M] | IC50 (A2780; Homo sapiens, A2780, 72 h) [M] | EC50 (SUDHL5 [2]) [µM] | EC50 (SUDHL10 [4]) [µM] | IC50 (SUDHL10 [5]) [M] | IC50 (A2780) [M] | SMILES | IC50 (SUDHL10 [3]; [7]) [M] | IC50 (OPM2; Homo sapiens, OPM-2, 72 h) [M] | IC50 (SUDHL5 [6]) [M] | IC50 (SUDHL10 [3]; read-out: Cytotox SUDHL10 [M] (median), SUDHL10 cells, cytotoxicity induction, CellTiter-Glo, 5 h incubation, median) | IC50 (OPM2) [M] |
| --- | --- | --- | --- | --- | --- | --- | --- | --- | --- | --- | --- | --- |
| 0.00251 | 5.77e-06 | > 3.3e-05 | 3.47 | 2.45 | 2.14e-05 |  | CN(C)S(=O)(=O)N1CCN(c2ccc(OCc3nn(C)c4c3-c3cccc5c(CCCOc6cccc7ccccc67)c(C(=O)O)n(c35)CCCCCC4)cc2)CC1 (racemic) [Example 1-39, (rac)-3-({4-[4-(dimethysulfamoyl)piperazin-1-yl]phenoxy}methyl)-1-methyl-7-[3-(naphthalen-1-yloxy)propyl]-10,11,12,13,14,15-hexahydro-1H-pyrazolo[4′,3′:4,5]azacycloundecino[3,2,1-hi]indole-8-carboxylic Acid] | 1.82e-06 | > 3.3e-05 | 2.05e-06 |  |  |
| 0.0202 | 7.08e-06 | > 3.3e-05 | 10.9 | 14.9 | 1.64e-05 |  | CN1CCCn2c(C(=O)O)c(CCCOc3cccc4ccccc34)c3cccc(c32)-c2c(CN3CCOCC3)nn(C)c2C1 (racemic) [Example 1-42, (rac)-7,9-dimethyl-11-(morpholin-4-ylmethyl)-1-[3-(naphthalen-1-yloxy)propyl]-4,5,6,7,8,9-hexahydropyrazolo[3′,4′:7,8][1,5]diazecino[9,10,1-hi]indole-2-carboxylic Acid] | > 3.3e-05 | 3.29e-05 | 1.19e-05 |  |  |
| 0.0171 | 1.3e-05 | 2.88e-05 | 19.5 | 25.9 | 9.02e-06 |  | Cn1nc(COc2ccc(C3(O)CCOCC3)cc2)c2c1COCC=CCn1c(C(=O)O)c(CCCOc3cccc4ccccc34)c3cccc-2c31 (racemic) [Example 1-60, (rac)-(E/Z)-3-{[4-(4-hydroxytetrahydro-2H-pyran-4-yl)phenoxy]methyl}-1-methyl-7-[3-(naphthalen-1-yloxy)propyl]-1,10,13,15-tetrahydropyrazolo[4′,3′ 9,10][1,6]oxazacycloundecino[8,7,6-hi]indole-8-carboxylic Acid] | 3.27e-05 | > 3.3e-05 | 2.1e-05 |  |  |
| 0.00831 | 3.22e-06 | > 3.3e-05 | 6.95 |  | 4.99e-06 | 2.49e-05 | Cc1nn(C)c2c1-c1cccc3c(CCCOc4cccc5c4CCCC5)c(C(=O)O)n(c13)CCCCOC2 (racemic) [Example 006, (rac)-1,3-dimethyl-7-[3-(5,6,7,8-tetrahydronaphthalen-1-yloxy)propyl]-1,10,11,12,13,15-hexahydropyrazolo[4′,3′:9,10][1,6]oxazacycloundecino[8,7,6-hi]indole-8-carboxylic Acid] | 1.99e-05 | 1.9e-05 | 7.28e-06 | > 3.3e-05 | > 3.3e-05 |

From US10981932B2, “Macrocyclic indole derivatives” (Bayer Aktiengesellschaft, priority 2016, dated 2021)
